Laboratory results taken from patent US12122778B2, “Activating pyruvate kinase R” (Novo Nordisk Health Care AG, priority 2018, dated 2024).

Key:
PKR(R510Q) = PKR(R510Q) (Homo sapiens, UniProt P30613, R510Q); assay: Luminescence Biochemical Assay (Kinase Glo Plus), PKR R510Q mutant; settings: without FBP; for activation at 1.54 µM: 1.54 μM compound, read-out: AC50 LUM KGP woFBP % Fold@1.54 μM mean; for AC50: read-out: AC50 LUM KGP woFBP AC50 μM gmean; for Emax: read-out: AC50 LUM KGP woFBP MAX % FOLD mean
Chain of PKR(R510Q) (P30613 whole entry R510Q): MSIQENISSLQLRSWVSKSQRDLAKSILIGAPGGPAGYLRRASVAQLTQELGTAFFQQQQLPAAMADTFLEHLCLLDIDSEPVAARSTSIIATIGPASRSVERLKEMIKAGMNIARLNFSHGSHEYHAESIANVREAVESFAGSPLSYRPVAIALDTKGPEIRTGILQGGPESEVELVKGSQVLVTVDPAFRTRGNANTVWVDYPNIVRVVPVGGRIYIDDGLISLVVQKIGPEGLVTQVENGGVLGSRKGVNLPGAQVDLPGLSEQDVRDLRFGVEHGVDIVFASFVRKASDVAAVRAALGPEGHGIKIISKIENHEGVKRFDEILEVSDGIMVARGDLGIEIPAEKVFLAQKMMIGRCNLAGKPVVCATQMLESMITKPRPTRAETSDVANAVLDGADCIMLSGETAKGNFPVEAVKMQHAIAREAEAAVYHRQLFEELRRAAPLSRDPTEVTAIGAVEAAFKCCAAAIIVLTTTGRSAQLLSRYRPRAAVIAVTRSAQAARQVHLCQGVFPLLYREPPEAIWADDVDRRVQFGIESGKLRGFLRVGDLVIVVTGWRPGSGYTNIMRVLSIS
Experimental: (§1) In some embodiments, a PKR Activating Compound can have: (1) an AC50 value of less than 0.1 μM (e.g., compounds with AC50 values of “+++” in Table 13), 0.1-1.0 μM (e.g., compounds with AC50 values of “++” in Table 13), or 1.01-40 μM (e.g., compounds with AC50 values of “+” in Table 13); (2) a MAX % Fold of 75%-250%, 250-500%, or 75%-500%; and/or (3) a % Fold@1.54 μM of 75%-250%, 250-500%, or 75%-500%. In some embodiments, a PKR Activating Compound has (1) an AC50 value of less than 1.0 μM; (2) a MAX % Fold of 75%-500%; and/or (3) a % Fold@1.54 μM of 75%-500%.
(§2) The phosphorylation of Adenosine-5′-diphosphate (ADP) by various mutants of PKR was determined by the Kinase Glo Plus Assay (Promega) in the presence or absence of FBP [D-Fructose-1,6-diphosphate; BOC Sciences, CAS: 81028-91-3] as follows. Unless otherwise indicated, all reagents were purchased from Sigma-Aldrich. All reagents were prepared in buffer containing 50 mM Tris-HCl, 100 mM KCl, 5 mM MgCl2, and 0.01% Triton X100, 0.03% BSA, and 1 mM DTT. Enzyme and PEP [Phospho(enol) pyruvic acid] were added at 2× to all wells of an assay-ready plate containing serial dilutions of test compounds or DMSO vehicle. Final enzyme concentrations for PKR(wt), PKR(R510Q), and PKR(G332S) were 0.8 nM, 0.8 nM, and 10 nM respectively. Final PEP concentration was 100 μM. The Enzyme/PEP mixture was incubated with compounds for 30 minutes at RT before the assay was initiated with the addition of 2×ADP [Adenosine-5′-diphosphate] and KinaseGloPlus. Final concentration of ADP was 100 μM. […] For assays containing FBP, that reagent is added at 30 μM upon reaction initiation. Reactions were allowed to progress for 45 minutes at RT until luminescence was recorded by the BMG PHERAstar FS Multilabel Reader. All compounds were tested in triplicate at concentrations ranging from 42.5 μM to 2.2 nM in 0.83% DMSO.
(§3) Luminescence values were converted to % Fold increase by normalizing to the average of the DMSO control and multiplying by 100. Max, min, slope and AC50 were determined by the standard four parameter fit algorithm of ActivityBase XE Runner. Compounds were evaluated with three parameters—AC50, MAX % Fold, and % Fold@1.54 μM (FIG. 1). The AC50 value for a compound is the concentration (μM) corresponding to the midway between the maximum and minimum values of the four parameter logistic curve fit (i.e., at which the % fold increase along the four parameter logistic curve fit is halfway between MAX % Fold and MIN % Fold (% Fold Midpoint)), MAX % Fold is the highest fold increase observed at any concentration of compound, and % Fold@1.54 μM is the fold increase at a compound concentration of 1.54 μM. The parameter % Fold@1.54 μM was selected to capture elements of both the AC50 and MAX % Fold and to provide a ranking based on both potency and effect. The compound concentration of 1.54 μM was chosen as one that can optimally differentiate the set of compounds based on the range of activities observed.
(§4) As set forth in Table 13 below, AC50 values (columns A, D, G) are defined as follows: ≤0.1 μM (+++); >0.1 μM and ≤1.0 μM (++); >1.0 μM and ≤40 μM (+); >40 μM (0). Max % FOLD values (columns B, E, H) are defined as follows: ≤75% (+); >75% and ≤250% (++); >250% and ≤500% (+++). % Fold@1.54 μM values (columns C, F, J) are defined as follows: ≤75% (+); >75% and ≤250% (++); >250% and ≤50000 (+++).

PKR(wt) = PKR(wt) (Homo sapiens, UniProt P30613); assay: Luminescence Biochemical Assay (Kinase Glo Plus), wild type PKR; settings: without FBP; for activation at 1.54 µM: 1.54 μM compound, read-out: AC50 LUM KGP woFBP % Fold@1.54 μM mean; for AC50: read-out: AC50 LUM KGP woFBP AC50 μM gmean; for Emax: read-out: AC50 LUM KGP woFBP MAX % FOLD mean
Chain of PKR(wt) (P30613 whole entry): as the sequence (P30613 whole entry R510Q) above, with Q510R counted along it
Experimental: as §1, §2, §3, §4

SMILES | activation at 1.54 µM (PKR(R510Q)) | AC50 (PKR(R510Q)) | Emax (PKR(R510Q)) | activation at 1.54 µM (PKR(wt)) | AC50 (PKR(wt)) | Emax (PKR(wt))
CC(C)Oc1ccc(CNC(=O)N2CC3=C(C2)CN(S(=O)(=O)c2ccc4ncsc4c2)C3)cc1 [Example 21-31, 5-(1,3-Benzothiazole-6-sulfonyl)-N-{[4-(propan-2-yloxy)phenyl]methyl}-1H,2H,3H,4H,5H,6H-pyrrolo[3,4-c]pyrrole-2-carboxamide] | 75 to 250% | 1 to 40 µM | 75 to 250% | 75 to 250% | 1 to 40 µM | 75 to 250%
Cc1cc(CNC(=O)N2CC3=C(C2)CN(S(=O)(=O)c2ccc(OC(F)F)cc2)C3)no1 [Example 21-5, 5-[4-(Difluoromethoxy)benzenesulfonyl]-N-[(5-methyl-1,2-oxazol-3-yl)methyl]-1H,2H,3H,4H,5H,6H-pyrrolo[3,4-c]pyrrole-2-carboxamide] | 250 to 50000% | 0.1 to 1 µM | 250 to 500% | 250 to 50000% | 0.1 to 1 µM | 250 to 500%
O=C([C@H](O)c1ccccc1)N1CC2=C(C1)CN(S(=O)(=O)c1cccc(F)c1)C2 [Example 18-50, (2R)-1-[5-(3-fluorobenzenesulfonyl)-1H,2H,3H,4H,5H,6H-pyrrolo[3,4-c]pyrrol-2-yl]-2-hydroxy-2-phenylethan-1-one] | 75 to 250% | 0.1 to 1 µM | 250 to 500% | 75 to 250% | 0.1 to 1 µM | 75 to 250%
O=C(NCc1cnccn1)N1CC2=C(C1)CN(S(=O)(=O)c1ccc3ncsc3c1)C2 [Example 21-30, 5-(1,3-Benzothiazole-6-sulfonyl)-N-(pyrazin-2-ylmethyl)-1H,2H,3H,4H,5H,6H-pyrrolo[3,4-c]pyrrole-2-carboxamide] | 75 to 250% | 1 to 40 µM | 250 to 500% | 250 to 50000% | 0.1 to 1 µM | 250 to 500%
O=C([C@H](O)c1ccccc1)N1CC2=C(C1)CN(S(=O)(=O)c1ccc(Cl)cc1)C2 [Example 18-10, (2R)-1-[5-(4-chlorobenzenesulfonyl)-1H,2H,3H,4H,5H,6H-pyrrolo[3,4-c]pyrrol-2-yl]-2-hydroxy-2-phenylethan-1-one] | 75 to 250% | 1 to 40 µM | 250 to 500% | 75 to 250% | 0.1 to 1 µM | 75 to 250%
Cc1ccc(F)c(S(=O)(=O)N2CC3=C(CN(C(=O)[C@H](O)c4ccccc4)C3)C2)c1 [Example 18-16, (2R)-1-[5-(2-fluoro-5-methylbenzenesulfonyl)-1H,2H,3H,4H,5H,6H-pyrrolo[3,4-c]pyrrol-2-yl]-2-hydroxy-2-phenylethan-1-one] | 250 to 50000% | ≤ 0.1 µM | 250 to 500% | 75 to 250% | ≤ 0.1 µM | 75 to 250%
O=C([C@H](O)c1ccccc1)N1CC2=C(C1)CN(S(=O)(=O)c1ccc(C(F)(F)F)cc1)C2 [Example 18-11, (2R)-2-hydroxy-2-phenyl-1-{5-[4-(trifluoromethyl)benzene-sulfonyl]-1H,2H,3H,4H,5H,6H-pyrrolo[3,4-c]pyrrol-2-yl}ethan-1-one] | 75 to 250% | 1 to 40 µM | 250 to 500% | 75 to 250% | 0.1 to 1 µM | 75 to 250%
Cc1cc(CNC(=O)N2CC3=C(C2)CN(S(=O)(=O)c2ccc(OC(F)F)cc2)C3)on1 [Example 21-6, 5-[4-(Difluoromethoxy)benzenesulfonyl]-N-[(3-methyl-1,2-oxazol-5-yl)methyl]-1H,2H,3H,4H,5H,6H-pyrrolo[3,4-c]pyrrole-2-carboxamide] | 250 to 50000% | 0.1 to 1 µM | 250 to 500% | 250 to 50000% | 0.1 to 1 µM | 250 to 500%
Cc1cc(CNC(=O)N2CC3=C(C2)CN(S(=O)(=O)c2ccc4ncsc4c2)C3)on1 [Example 21-9, 5-(1,3-Benzothiazole-6-sulfonyl)-N-[(3-methyl-1,2-oxazol-5-yl)methyl]-1H,2H,3H,4H,5H,6H-pyrrolo[3,4-c]pyrrole-2-carboxamide] | 75 to 250% | 0.1 to 1 µM | 250 to 500% | 75 to 250% | 0.1 to 1 µM | 250 to 500%
O=C(C1OCCc2ccccc21)N1CC2=C(C1)CN(S(=O)(=O)c1ccc(OC(F)F)cc1)C2 (stereo not drawn) [Example 18-33, 2-[4-(Difluoromethoxy)benzenesulfonyl]-5-(3,4-dihydro-1H-2-benzopyran-1-carbonyl)-1H,2H,3H,4H,5H,6H-pyrrolo[3,4-c]pyrrole] | 75 to 250% | 1 to 40 µM | 250 to 500% | 75 to 250% | 1 to 40 µM | 250 to 500%
O=C([C@H](O)c1ccccc1)N1CC2=C(C1)CN(S(=O)(=O)c1ccc(Cl)s1)C2 [Example 18-55, (2R)-1-{5-[(5-chlorothiophen-2-yl)sulfonyl]-1H,2H,3H,4H,5H,6H-pyrrolo[3,4-c]pyrrol-2-yl}-2-hydroxy-2-phenylethan-1-one] | 75 to 250% | 0.1 to 1 µM | 250 to 500% | 75 to 250% | 0.1 to 1 µM | 75 to 250%
O=C(NCc1nccs1)N1CC2=C(C1)CN(S(=O)(=O)c1ccc3ncsc3c1)C2 [Example 21-28, 5-(1,3-Benzothiazole-6-sulfonyl)-N-(1,3-thiazol-2-ylmethyl)-1H,2H,3H,4H,5H,6H-pyrrolo[3,4-c]pyrrole-2-carboxamide] | 75 to 250% | 0.1 to 1 µM | 75 to 250% | 75 to 250% | 0.1 to 1 µM | 250 to 500%
O=C(NCc1ccno1)N1CC2=C(C1)CN(S(=O)(=O)c1ccc3ncsc3c1)C2 [Example 21-27, 5-(1,3-Benzothiazole-6-sulfonyl)-N-(1,2-oxazol-5-ylmethyl)-1H,2H,3H,4H,5H,6H-pyrrolo[3,4-c]pyrrole-2-carboxamide] | 75 to 250% | 1 to 40 µM | 75 to 250% | 75 to 250% | 0.1 to 1 µM | 75 to 250%
COc1ccc(S(=O)(=O)N2CC3=C(CN(C(=O)[C@H](O)c4ccccc4)C3)C2)cc1F [Example 18-17, (2R)-1-[5-(3-fluoro-4-methoxybenzenesulfonyl)-1H,2H,3H,4H,5H,6H-pyrrolo[3,4-c]pyrrol-2-yl]-2-hydroxy-2-phenylethan-1-one] | 250 to 50000% | ≤ 0.1 µM | 250 to 500% | 75 to 250% | ≤ 0.1 µM | 75 to 250%
O=C([C@H](O)c1ccccc1)N1CC2=C(C1)CN(S(=O)(=O)c1ccc(F)cc1F)C2 [Example 18-18, (2R)-1-[5-(2,4-difluorobenzenesulfonyl)-1H,2H,3H,4H,5H,6H-pyrrolo[3,4-c]pyrrol-2-yl]-2-hydroxy-2-phenylethan-1-one] | 250 to 50000% | 0.1 to 1 µM | 250 to 500% | 75 to 250% | ≤ 0.1 µM | 75 to 250%
